Test [1] deals with collagenase-induced ICH. In words: Neurological testing: apomorphine-induced rotational behavior after ICH. To be noted: 2 days after ICH; vehicle approximately 20. The class given is in vivo, rat. The text has this:
All animals received humane care in compliance with the institute's guidelines as outlined in “Guide for the Care and Use of Laboratory Animals” prepared by the National Academy of Sciences and published by the National Institutes of Health (NIH publication no. 86-23, revised 1985). Female Sprague-Dawley rats (250-300 grams (g); Harlan Sprague-Dawley, Inc., Indianapolis, Ind.) were anesthesized with an intramuscular injection of a mixture of ketamine and xylazine and set in supine in a Kopf headholder. The right carotid artery, external and internal branches, was exposed and the distal end of the external carotid freed and retracted to line with the internal carotid. A PE-10 polyethylene tube (Becton-Dickinson, Sparks, Md.) was then introduced from the external into the internal carotid artery, and the former was ligated to hold the tube. […]
The animals were tested for rotational behavior in response to apomorphine 2 days after surgery. Apomorphine (1 mg/kg bw; Sigma Chemical Co.) was injected subcutaneously, and rotations were determined by a computer-controlled Columbus Instruments Videomex-V system (Columbus, Ohio). […] Step initiation was assessed at 2 days after ICH by independently analyzing stepping behavior in the left and right forelimbs. […] The number of steps initiated by each limb was counted during a 1-minute period.

The subject of test [2] is NF-κB/IκBα protein complex. In words: Immunoblotting and immunohistochemistry of NF-κB/IκBα in ICH rat brain. The class given is in vivo. The text has this:
(§1) All animals received humane care in compliance with the institute's guidelines as outlined in “Guide for the Care and Use of Laboratory Animals” prepared by the National Academy of Sciences and published by the National Institutes of Health (NIH publication no. 86-23, revised 1985). Female Sprague-Dawley rats (250-300 grams (g); Harlan Sprague-Dawley, Inc., Indianapolis, Ind.) were anesthesized with an intramuscular injection of a mixture of ketamine and xylazine and set in supine in a Kopf headholder. The right carotid artery, external and internal branches, was exposed and the distal end of the external carotid freed and retracted to line with the internal carotid. A PE-10 polyethylene tube (Becton-Dickinson, Sparks, Md.) was then introduced from the external into the internal carotid artery, and the former was ligated to hold the tube. TUDCA (Calbiochem-Novabiochem Corp., San Diego, Calif.) was dissolved in phosphate buffer, pH 7.4 at 400 milligrams per milliliter (mg/ml). Saline or TUDCA solution (1 milliliter per kilogram body weight (ml/kg bw)) were injected directly into the internal carotid artery, within 5 minutes. […]
(§2) Bcl-2 family, NF-κB, IκB, p-Akt, and p-Bad protein levels were determined from total protein homogenates separated by 12% sodium dodecyl sulfate polyacrylamide gel electrophoresis (SDS-PAGE). […]

Test [3] relates to phosphorylated Akt-1 Ser473, phosphorylated Bad Ser-136. In words: Immunoblotting of phosphorylated Akt-1 and phosphorylated Bad in ICH rat brain. The class given is in vivo.
Source text: as §1, §2

Regarding `C[C@H](CCC(=O)NCCS(=O)(=O)O)[C@H]1CC[C@H]2[C@@H]3[C@@H](O)C[C@@H]4C[C@H](O)CC[C@]4(C)[C@H]3CC[C@]12C` [TUDCA, tauroursodeoxycholic acid], the “rotational response to apomorphine” value in test [1] is listed as “less than 10 per 5 minutes”. In test [2] (100 mg/kg bw TUDCA, 2 days after ICH), the “NF-κB activation in the peri-ICH region (immunohistochemistry, words)” value is listed as “markedly decreased”. Also, in test [2] (increasing doses of TUDCA (10-200 mg/kg bw) 1 hour before collagenase, ipsilateral hemisphere), the “IκBα protein level (Western blot, words)” value is given as “largely restored”. In addition, the “levels of phosphorylated Bad compared with untreated sham controls” value in test [3] (brain of rats receiving TUDCA) is on record as about 2 fold. Moreover, the “expression of phosphorylated form of Akt-1” value in test [3] (hemisphere ipsilateral to ICH, TUDCA 10-200 mg/kg bw) was “largely restored”.

Source of the values: patent US20060135494A1, “Methods of treating injuries of the nervous system associated with hemorrhage” (priority 2002, published 2006).
